Assay results reported in patent EP1832586A1, “Thiazole-piperidine derivatives in treatment of diseases of liver and the pancreas” (Oridis Biomed Forschungs- und Entwicklungs GmbH, priority 2006, dated 2007).
pEC50: −log10 of the molar value.

Experiments:
Type in all cases: cell-based
HeLa = test: CellTiter-Glo luminescent cell viability (proliferation) assay, HeLa; settings: Hela (human ovarian carcinoma [sic]) proliferation, 48 hours incubation, 10% FCS
Description: (§1) To practically assess the impact of the thiazole-piperidine derivatives, e.g. derivatives of piperidinyl-thiazole carboxylic acid and/or piperidinyl thiazole carboxamide, in the treatment and/or prevention of diseases according to the invention, the inhibition of cell proliferation is determined by using a luminescent cell viability assay (CellTiter-Glo®; Promega, Madison, USA). The assay is based on the relation that the ATP content is directly proportional to the number of cells present in the culture. The CellTiter-Glo® assay is performed to measure the proliferation rate of human hepatoma (HuH7, PLC/PRF/5, Hep3B, SK-Hep1), human hepatoblastoma (HepG2), human colon carcinoma (CX-2), human breast cancer (SK-Br-3), human ovarian carcinoma (HeLa) and human pancreatic carcinoma (DAN-G) cell lines. […] In particular, the compound according to formula (1) wherein R^1 is 4-isopropoxycarbonylphenyl, R^2 is 3-indolylmethyl, R^3 is hydrogen, R^4 is hydrogen, n is zero, A is a single bond, B is carbonyl, and wherein the residue R^1NR^3CO is connected to the carbon atom bound to nitrogen of the thiazole ring (compound no. XI in Table 1) inhibits proliferation of the human cell lines HepG2 and Hep3B with 10.8 and 3.5 µM, respectively.
(§2) To determine the inhibition of cell proliferation a luminescent cell viability assay (CellTiter-Glo®; Promega, Madison, USA) is implemented. The assay is based on the relation that the ATP content is directly proportional to the number of cells present in the culture (Technical Bulletin No. 228 "CellTiter-Glo® Luminescent Cell viability Assay", Revised 2/04. Promeg, Madison, USA). The CellTiter-Glo® assay is performed to measure the proliferation rate of human hepatoma (HuH7, PLC/PRF/5, Hep3B, SK-Hep1), human hepatoblastoma (HepG2), human colon carcinoma (CX-2), human breast cancer (SK-Br-3), human ovarian carcinoma (HeLa) and human pancreatic carcinoma (DAN-G) cell lines. 3000 viable cells (viability ≥ 90%) are seeded in opaque-walled 96-well plates and incubated for 24 hours in DMEM, supplemented with 2 mM glutamin. Cell proliferation is stimulated by addition of FCS to a final concentration of 10% (v/v). Simultaneously the compounds (see Table 1 and 2) are added in a concentration range of 0 to 20 µM. Triplicates are measured for each concentration. Cells and compounds (see Table 1 and 2) are incubated for a period of 48 hours in a volume of 140 µl cell culture medium (10% (v/v) FCS, 2 mM Glutamin, DMEM). The compounds according to the invention are dissolved in 60% to 100% (v/v) DMSO at a concentration of 2 mM. The final DMSO concentration under assay conditions never exceeds 1% (v/v). Throughout the assay cells are kept in a humidified incubator (95% rH) at 37°C and 5% CO2.
(§3) The final cell number is determined after 48 hour of incubation. Therefore 140 µl CellTiter-Glo®Reagent is added in each well. The contents are mixed on an orbital shaker for 2 minutes at room temperature. After subsequent incubation for additional 10 minutes at room temperature the luminescence signal is recorded within 30 min. EC50 values are calculated using the four-parametric Hill equation (Sigma Plot). Control values are: • 1) 10% (v/v) FCS, 2 mM glutamin, DMEM -> maximum cell number • 2) 2 mM glutamin, DMEM -> initial cell number

HepG2 = test: CellTiter-Glo luminescent cell viability (proliferation) assay, HepG2; settings: HepG2 (human hepatoblastoma), 48 hours incubation, 10% FCS; read-out: inhibits proliferation
Description: (§4) To practically assess the impact of the thiazole-piperidine derivatives, e.g. derivatives of piperidinyl-thiazole carboxylic acid and/or piperidinyl thiazole carboxamide, in the treatment and/or prevention of diseases according to the invention, the inhibition of cell proliferation is determined by using a luminescent cell viability assay (CellTiter-Glo®; Promega, Madison, USA). The assay is based on the relation that the ATP content is directly proportional to the number of cells present in the culture. The CellTiter-Glo® assay is performed to measure the proliferation rate of human hepatoma (HuH7, PLC/PRF/5, Hep3B, SK-Hep1), human hepatoblastoma (HepG2), human colon carcinoma (CX-2), human breast cancer (SK-Br-3), human ovarian carcinoma (HeLa) and human pancreatic carcinoma (DAN-G) cell lines. […]
(§5) To determine the inhibition of cell proliferation a luminescent cell viability assay (CellTiter-Glo®; Promega, Madison, USA) is implemented. […] Triplicates are measured for each concentration. […]
(§6) The final cell number is determined after 48 hour of incubation. […] After subsequent incubation for additional 10 minutes at room temperature the luminescence signal is recorded within 30 min. EC50 values are calculated using the four-parametric Hill equation (Sigma Plot). […]

SK-Br-3 = test: CellTiter-Glo luminescent cell viability (proliferation) assay, SK-Br-3; settings: Sk-Br-3 (human breast cancer) proliferation, 48 hours incubation, 10% FCS
Description: as §1, §2, §3

CX-2 = test: CellTiter-Glo luminescent cell viability (proliferation) assay, CX-2; settings: CX-2 (human colon carcinoma) proliferation, 48 hours incubation, 10% FCS
Description: as §1, §2, §3

DAN-G = test: CellTiter-Glo luminescent cell viability (proliferation) assay, DAN-G; settings: DAN-G (human pancreatic carcinoma) proliferation, 48 hours incubation, 10% FCS
Description: as §1, §2, §3

Hep3B = test: CellTiter-Glo luminescent cell viability (proliferation) assay, Hep3B; settings: Hep3B (human hepatoma), 48 hours incubation, 10% FCS; read-out: inhibits proliferation
Description: as §4, §5, §6

HuH7 = test: CellTiter-Glo luminescent cell viability (proliferation) assay, HuH7; settings: inhibition of HuH7 (human hepatoma) proliferation, 48 hours incubation, 10% FCS
Description: as §1, §2, §3

| SMILES | pEC50 (HeLa) | pEC50 (HepG2) | pEC50 (SK-Br-3) | pEC50 (Hep3B) | pEC50 (HuH7; Homo sapiens, Huh-7, 48 h) | pEC50 (HuH7; Huh-7) | pEC50 (CX-2) | pEC50 (DAN-G) |
| --- | --- | --- | --- | --- | --- | --- | --- | --- |
| Cc1ccc(S(=O)(=O)N2CCC(c3nc(C(=O)Nc4nnc(C(F)(F)F)s4)cs3)CC2)cc1Cl [XXVI] | 4.95 | – | 4.71 | – | 5.94 | – | 4.69 | 4.87 |
| O=C(Nc1cc(-c2cccs2)n[nH]1)c1csc(C2CCN(C(=O)N3CCN(c4ccccn4)CC3)CC2)n1 [XXXIII] | 4.94 | – | < 4.70 | – | 5.49 | – | < 4.70 | 4.86 |
| C=CCSc1ncccc1C(=O)N1CCC(c2nc(C(=O)Nc3cc(-c4ccccc4)nn3C)cs2)CC1 [XXXI] | 4.69 | – | 4.99 | – | 6.30 | – | 4.98 | 5.45 |
| COc1ccc(C(=O)N2CCC(c3nc(C(=O)NC4C=C(c5ccccc5)N=N4)cs3)CC2)c(OC)c1OC (stereo not drawn) [XX] | 4.99 | – | 4.71 | – | 5.27 | – | < 4.70 | 5.11 |
| O=C(Nc1nccs1)c1csc(C2CCN(C(=O)Cc3c[nH]c4ccccc34)CC2)n1 [X] | 4.74 | – | 4.72 | – | – | 5.81 | < 4.70 | 5.60 |

Now from value to molecule, other results behind:

| pEC50 (HeLa) | pEC50 (HepG2) | pEC50 (SK-Br-3) | pEC50 (Hep3B) | pEC50 (HuH7; Homo sapiens, Huh-7, 48 h) | pEC50 (HuH7; Huh-7) | SMILES | pEC50 (CX-2) | pEC50 (DAN-G) |
| --- | --- | --- | --- | --- | --- | --- | --- | --- |
| 4.58 | 4.97 | 4.99 | 5.46 | 6.44 | – | CC(C)OC(=O)c1ccc(NC(=O)c2csc(C3CCN(C(=O)CC4C=Nc5ccccc54)CC3)n2)cc1 (stereo not drawn) [XI, 2-[1-{indol-3-yl-methylcarboxyl}piperidine-4-yl]-thiazole-4-yl-caboxylic acid (4-isoproxycarboxy-phenyl) amide] | 4.65 | 5.12 |
| 4.76 | – | 4.97 | – | 5.79 | – | Cc1ccc(NC(=O)c2csc(C3CCN(C(=O)CC4C=Nc5ccccc54)CC3)n2)cc1F (stereo not drawn) [XV] | 4.96 | 5.42 |
| 5.05 | – | 4.78 | – | 6.60 | – | O=C(Nc1ccc(F)c(F)c1)c1csc(C2CCN(C(=O)CC3C=Nc4ccccc43)CC2)n1 (stereo not drawn) [XXIV] | 4.99 | 5.59 |
